Data: US20180243309A1, “TOPICAL ANTIVIRAL COMPOSITIONS” (Topical Remedy, LLC, priority 2015, published 2018)

What was measured:
[1] = system: HSV-1, strain E-377; experiment: Orofacial HSV-1 infection in SKH-1 mice: mortality and facial lesion scores; format: in vivo; conditions: for Mortality Number: dead/total, topical 3 times daily Days 4-6, 20 min intervals, acyclovir 3 times daily for 5 days from 24 h after inoculation; for #With Lesions/#Inoculated: facial lesions, days 1-21; for Mean Peak Lesion Score ± SD: lesion score scale 0.0-5.0
Procedure: In this model, mice are anesthetized with a ketamine/xylazine mixture and implanted with an electronic microchip for individual identification. […] This procedure is performed carefully to prevent bleeding. […] Following this procedure, animals are returned to their cages and observed until recovery.
(§1) To determine the effect of treatment on cutaneous viral replication, severity of lesions is scored from days 1-21 and swabs of the snout area are taken on days 2-8 and 10. […] All drug studies are placebo or vehicle controlled.
(§2) During the post-challenge phase, animals were examined daily and lesions scored for severity and samples taken for quantitation of orofacial HSV replication.
Female SKH-1 mice (Charles River Laboratories, Raleigh, N.C.) were assigned randomly to groups. Each efficacy group contained 10 animals. Animals were anesthetized with ketamine-xylazine, implanted with an identification microchip, and has the orofacial area abraded using a Dremmel tool with an engraving bit.
To determine the effect of treatment on the development and severity of lesions, severity of lesions were graded on a 0.0 to 5.0 scale in 0.5 increments, according to the scale below. The presence or absence of lesions and severity of lesions was recorded daily beginning day 1 through day 21 post-challenge. Animals were observed daily for signs of systemic viral disease.
(§3) Mortality rates were analyzed by Fisher's exact test and mean day of death using Mann-Whitney U rank sum test. Infection rates, peak lesion scores, peak virus titers, areas under the curve for virus titer-day and lesion score-day between control and treated animals will be compared using the Mann-Whitney U Rank Sum Test.

[2] = system: HSV-1, strain E-377; experiment: Orofacial HSV-1 infection in SKH-1 mice: virus titers of orofacial swabs (CPE microtiter assay on rabbit kidney cells); format: in vivo; conditions: for mean virus titer ± standard deviation, Day 4 am: Day 4, am (before treatments); for mean virus titer ± standard deviation, Day 4 pm: Day 4, pm (after treatments); for mean virus titer ± standard deviation, Day 5 am: Day 5, am (before treatments); for mean virus titer ± standard deviation, Day 5 pm: Day 5, pm (after treatments); for mean virus titer ± standard deviation, Day 6 am: Day 6, am (before treatments); for mean virus titer ± standard deviation, Day 6 pm: Day 6, pm (after treatments); for Mean Peak Titer Score ± SD: orofacial swabs; for #Virus Positive/#Inoculated / Titer-Day AUC: orofacial swabs days 2-8 and 10
Source text: as §1, §2
To determine the effect of treatment on HSV-1 replication on the orofacial area, swabs of the area were obtained on days 2 through 8 and 10 post-viral challenge. On treatment days, swabs were obtained at least 3 hours following the final treatment. Swabs were placed in tubes containing 2.0 ml of media, vortexed, and frozen at −70° C. until titrated for HSV. […] Wells were seeded with 10^4 cells per well and inoculated in triplicate 24 h later. The plates were read under a microscope five days after viral inoculation and the presence/absence of viral CPE in each well noted. A TCID50 value was calculated using Reed-Muench Methodology.
To determine the effect of treatment on HSV-1 replication from the lesions on the orofacial area, swabs of the area were obtained at least 3 hours after treatment on days when mice are treated. […] Samples were taken before treatments and after treatments.
as §3, with “Test. A P-value of 0.05 or less will be considered significant.” for “Test.”
In addition, the immediate post treatment effects on lesion derived virus titers was analyzed using the mixed linear model with a P-value of 0.05 or less considered as significant. This difference in virus recovered from animals before and after treatments for all treatment days was used to calculate significance.

[3] = same regimens as Mortality Number

Molecule	Mortality Number [1]	#With Lesions/#Inoculated [1]	Mean Peak Lesion Score ± SD [1]	Mortality Percent [1, 3] [%]	mean virus titer ± standard deviation, Day 4 am [2]	mean virus titer ± standard deviation, Day 4 pm [2] [TCID50]	mean virus titer ± standard deviation, Day 5 am [2] [TCID50]	mean virus titer ± standard deviation, Day 5 pm [2] [TCID50]	mean virus titer ± standard deviation, Day 6 am [2] [TCID50]	mean virus titer ± standard deviation, Day 6 pm [2] [TCID50]	Mean Peak Titer Score ± SD [2]	#Virus Positive/#Inoculated [2]	Lesion-Day AUC ([1]; lesion score scale 0.0-5.0, days 1-21)	MDD (Mean Day of Death) [1, 3]	Titer-Day AUC [2]
Nc1nc2c(ncn2COCCO)c(=O)[nH]1 [5% Acyclovir, Acyclovir, reference compound]	0/10	0/10	0.0 ± 0.0	0	0.2 ± 0.8^ TCID50	0.0 ± 0.0	0.0 ± 0.0	0.0 ± 0.0	0.0 ± 0.0	0.0 ± 0.0	0.6 ± 0.1	3/10	–	–	–
Ethyl alcohol [Compound 1]	8/10	10/10	3.0 ± 0.0↑	80	5.1 ± 1.0^ TCID50	5.1 ± 1.5	5.7 ± 0.4	5.6 ± 0.6	4.9 ± 0.7	4.0 ± 0.8	6.0 ± 0.2	10/10	41.1↑	7.9	32.2
Glycolic acid [Compound 2]	–	–	–	–	4.2 ± 1.3^ TCID50	4.2 ± 1.6	5.5 ± 0.4	5.1 ± 0.6	5.2 ± 0.6	4.4 ± 0.5	5.3 ± 0.5	10/10	–	–	33.3
